Columns and labels:
H. pylori [1] = assay: Effects of NiCl2 on H. pylori on culture medium (50 mL Colombian culture medium with 80 mg urea and 0.4 mg phenol red); assay type: cell-based, Helicobacter pylori; parameters: key to bacteria growth and discoloration: +: refers to a good bacteria growth after 36 hours of culture, with a discoloration; ++: refers to a good bacteria growth after 36 hours of culture, with an obvious discoloration; conditions: for bacteria growth and discoloration: 36 hours of culture
H. pylori [2] = assay: Effects of urea and phenol red on H. pylori on Columbia culture medium; assay type: cell-based, Helicobacter pylori; conditions: for bacterial growth: 1 × 10^6 CFU/mL; for effect on the growth of H. pylori: strains G27 and 287, 72 hours

In the case of `[Cl][Ni][Cl]` [NiCl2, nickel chloride], the “recognition of the discoloration reaction” value (H. pylori [1]; NiCl2 100 μmol/L) is reported as “has reached its maximum”, the “sensitivity and identification of the discoloration reaction” value (H. pylori [1]; NiCl2 1 μMol/L to 200 μMol/L, 80 mg urea, 0.4 mg phenol red, pH 7.15 to 7.35) is reported as “the sensitivity and identification of the discoloration reaction are further improved” and the “bacteria growth and discoloration” value (H. pylori [1]; strain 159, NiCl2 1 μmol/L) is reported as “+”. For the same compound, the “bacteria growth and discoloration” value (H. pylori [1]; strain 159, NiCl2 10 μmol/L) was “+”, the “bacteria growth and discoloration” value (H. pylori [1]; strain 159, NiCl2 100 μmol/L) was “++” and the “bacteria growth and discoloration” value (H. pylori [1]; strain 161, NiCl2 1 μmol/L) was “+”. The “bacteria growth and discoloration” value (H. pylori [1]; strain 161, NiCl2 10 μmol/L) was “+”, the “bacteria growth and discoloration” value (H. pylori [1]; strain 161, NiCl2 100 μmol/L) was “++” and the “bacteria growth and discoloration” value (H. pylori [1]; strain 162, NiCl2 1 μmol/L) was “+”. The “bacteria growth and discoloration” value (H. pylori [1]; strain 162, NiCl2 10 μmol/L) was “+”, the “bacteria growth and discoloration” value (H. pylori [1]; strain 162, NiCl2 100 μmol/L) was “++” and the “bacteria growth and discoloration” value (H. pylori [1]; strain 163, NiCl2 1 μmol/L) was “+”. The “bacteria growth and discoloration” value (H. pylori [1]; strain 163, NiCl2 10 μmol/L) was “+”, the “bacteria growth and discoloration” value (H. pylori [1]; strain 163, NiCl2 100 μmol/L) was “++” and the “bacteria growth and discoloration” value (H. pylori [1]; strain 286, NiCl2 1 μmol/L) was “+”. For the same compound, the “bacteria growth and discoloration” value (H. pylori [1]; strain 286, NiCl2 10 μmol/L) was “+”, the “bacteria growth and discoloration” value (H. pylori [1]; strain 286, NiCl2 100 μmol/L) was “++” and the “bacteria growth and discoloration” value (H. pylori [1]; strain 287, NiCl2 1 μmol/L) was “+”. The “bacteria growth and discoloration” value (H. pylori [1]; strain 287, NiCl2 10 μmol/L) was “+”, the “bacteria growth and discoloration” value (H. pylori [1]; strain 287, NiCl2 100 μmol/L) was “++” and the “bacteria growth and discoloration” value (H. pylori [1]; strain 289, NiCl2 1 μmol/L) was “+”. For the same compound, the “bacteria growth and discoloration” value (H. pylori [1]; strain 289, NiCl2 10 μmol/L) was “+”, the “bacteria growth and discoloration” value (H. pylori [1]; strain 289, NiCl2 100 μmol/L) was “++” and the “bacteria growth and discoloration” value (H. pylori [1]; strain 290, NiCl2 1 μmol/L) was “+”. The “bacteria growth and discoloration” value (H. pylori [1]; strain 290, NiCl2 10 μmol/L) was “+”, the “bacteria growth and discoloration” value (H. pylori [1]; strain 290, NiCl2 100 μmol/L) was “++” and the “bacteria growth and discoloration” value (H. pylori [1]; strain 26695, NiCl2 1 μmol/L) was “+”. The “bacteria growth and discoloration” value (H. pylori [1]; strain 26695, NiCl2 10 μmol/L) was “+”, the “bacteria growth and discoloration” value (H. pylori [1]; strain 26695, NiCl2 100 μmol/L) was “++” and the “bacteria growth and discoloration” value (H. pylori [1]; strain G27, NiCl2 1 μmol/L) was “+”. The “bacteria growth and discoloration” value (H. pylori [1]; strain G27, NiCl2 10 μmol/L) was “+” and the “bacteria growth and discoloration” value (H. pylori [1]; strain G27, NiCl2 100 μmol/L) was “++”.

With `NC(N)=O` [Urea, urea] the “maximum value of added urea without affecting the growth of H. pylori” value (H. pylori [2]; in 50 mL Colombian culture medium) was 80 mg, the bacterial growth (H. pylori [2]; strain 159, urea 60 mg) was “++” and the bacterial growth (H. pylori [2]; strain 159, urea 80 mg) was “++”. The bacterial growth (H. pylori [2]; strain 159, urea 100 mg) was “+”, the bacterial growth (H. pylori [2]; strain 159, urea 120 mg) was “+” and the bacterial growth (H. pylori [2]; strain 159, urea 240 mg) was “−”. For the same compound, the bacterial growth (H. pylori [2]; strain 161, urea 60 mg) was “++”, the bacterial growth (H. pylori [2]; strain 161, urea 80 mg) was “++” and the bacterial growth (H. pylori [2]; strain 161, urea 100 mg) was “+”. For the same compound, the bacterial growth (H. pylori [2]; strain 161, urea 120 mg) was “+”, the bacterial growth (H. pylori [2]; strain 161, urea 240 mg) was “−” and the bacterial growth (H. pylori [2]; strain 162, urea 60 mg) was “++”. For the same compound, the bacterial growth (H. pylori [2]; strain 162, urea 80 mg) was “++”, the bacterial growth (H. pylori [2]; strain 162, urea 100 mg) was “+” and the bacterial growth (H. pylori [2]; strain 162, urea 120 mg) was “+”. The bacterial growth (H. pylori [2]; strain 162, urea 240 mg) was “−”, the bacterial growth (H. pylori [2]; strain 163, urea 60 mg) was “++” and the bacterial growth (H. pylori [2]; strain 163, urea 80 mg) was “++”. The bacterial growth (H. pylori [2]; strain 163, urea 100 mg) was “+”, the bacterial growth (H. pylori [2]; strain 163, urea 120 mg) was “+” and the bacterial growth (H. pylori [2]; strain 163, urea 240 mg) was “−”. The bacterial growth (H. pylori [2]; strain 286, urea 60 mg) was “++”, the bacterial growth (H. pylori [2]; strain 286, urea 80 mg) was “++” and the bacterial growth (H. pylori [2]; strain 286, urea 100 mg) was “+”. The bacterial growth (H. pylori [2]; strain 286, urea 120 mg) was “+”, the bacterial growth (H. pylori [2]; strain 286, urea 240 mg) was “−” and the bacterial growth (H. pylori [2]; strain 287, urea 60 mg) was “++”. For the same compound, the bacterial growth (H. pylori [2]; strain 287, urea 80 mg) was “++”, the bacterial growth (H. pylori [2]; strain 287, urea 100 mg) was “+” and the bacterial growth (H. pylori [2]; strain 287, urea 120 mg) was “+”. For the same compound, the bacterial growth (H. pylori [2]; strain 287, urea 240 mg) was “−”, the bacterial growth (H. pylori [2]; strain 289, urea 60 mg) was “++” and the bacterial growth (H. pylori [2]; strain 289, urea 80 mg) was “++”. The bacterial growth (H. pylori [2]; strain 289, urea 100 mg) was “+”, the bacterial growth (H. pylori [2]; strain 289, urea 120 mg) was “+” and the bacterial growth (H. pylori [2]; strain 289, urea 240 mg) was “−”. For the same compound, the bacterial growth (H. pylori [2]; strain 290, urea 60 mg) was “++”, the bacterial growth (H. pylori [2]; strain 290, urea 80 mg) was “++” and the bacterial growth (H. pylori [2]; strain 290, urea 100 mg) was “+”. The bacterial growth (H. pylori [2]; strain 290, urea 120 mg) was “+”, the bacterial growth (H. pylori [2]; strain 290, urea 240 mg) was “−” and the bacterial growth (H. pylori [2]; strain 26695, urea 60 mg) was “++”. For the same compound, the bacterial growth (H. pylori [2]; strain 26695, urea 80 mg) was “++”, the bacterial growth (H. pylori [2]; strain 26695, urea 100 mg) was “+” and the bacterial growth (H. pylori [2]; strain 26695, urea 120 mg) was “+”. For the same compound, the bacterial growth (H. pylori [2]; strain 26695, urea 240 mg) was “−”, the bacterial growth (H. pylori [2]; strain G27, urea 60 mg) was “++” and the bacterial growth (H. pylori [2]; strain G27, urea 80 mg) was “++”. The bacterial growth (H. pylori [2]; strain G27, urea 100 mg) was “+”, the bacterial growth (H. pylori [2]; strain G27, urea 120 mg) was “+” and the bacterial growth (H. pylori [2]; strain G27, urea 240 mg) was “−”. For the same compound, the “effect on the growth of H. pylori” value (H. pylori [2]; urea 60 mg in 50 mL Colombian culture medium) was “no effect on the growth of H. pylori” and the “effect on the growth of H. pylori” value (H. pylori [2]; urea 120 mg to 240 mg in 50 mL Colombian culture medium) was “the growth is not good”.
